# Data from patent publication US10722501B2 (BAYER AKTIENGESELLSCHAFT, priority 2016, dated 2020).
# Target: T1, recombinant full-length human prolyl endopeptidase (PREP) (Homo sapiens, UniProt P48147)
# T1 construct: To recombinant full-length human prolyl endopeptidase (PREP, R&D-Systems, 4308-SE); purchased R&D-Systems 4308-SE
# T1 sequence (P48147 1-710): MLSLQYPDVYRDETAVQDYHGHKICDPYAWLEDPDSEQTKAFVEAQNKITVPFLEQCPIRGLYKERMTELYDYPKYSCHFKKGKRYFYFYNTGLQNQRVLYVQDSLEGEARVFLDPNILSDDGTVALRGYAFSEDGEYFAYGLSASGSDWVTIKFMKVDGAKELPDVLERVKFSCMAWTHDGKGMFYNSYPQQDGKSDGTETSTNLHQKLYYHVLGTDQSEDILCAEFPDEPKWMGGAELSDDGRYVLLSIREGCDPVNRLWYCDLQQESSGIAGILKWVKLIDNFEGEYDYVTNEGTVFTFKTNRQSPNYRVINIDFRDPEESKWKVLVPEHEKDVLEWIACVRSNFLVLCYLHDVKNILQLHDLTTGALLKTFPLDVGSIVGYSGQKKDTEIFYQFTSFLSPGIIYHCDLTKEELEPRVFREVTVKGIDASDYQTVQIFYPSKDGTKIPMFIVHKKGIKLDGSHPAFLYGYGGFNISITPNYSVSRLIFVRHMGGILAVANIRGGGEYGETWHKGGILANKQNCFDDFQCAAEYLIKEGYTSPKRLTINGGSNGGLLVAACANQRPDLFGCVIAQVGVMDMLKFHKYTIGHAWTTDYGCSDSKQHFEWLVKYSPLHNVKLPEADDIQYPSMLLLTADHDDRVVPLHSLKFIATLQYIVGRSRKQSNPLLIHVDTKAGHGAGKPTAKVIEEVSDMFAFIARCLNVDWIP
# Assay: Biochemical human prolyl endopeptidase (PREP) assay with fluorescently labelled substrate
# Conditions: substrate Z-Gly-Pro-AMC 50 μM, 32° C., 60 min; some as mean values from multiple independent determinations
# How it was run: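 Initial rates of fluorescence increase from 50 μM Z-Gly-Pro-AMC cleavage (ex 360/em 465 nm, 60 min, 32° C) give percent PREP activity versus no-compound control, and IC50 is interpolated. Enzyme used at 0.4 nM (final, example) in Tris pH 7.5 with EDTA, GSH, BSA and Brij-35; compounds span 1 nM to 30 μM.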
row,SMILES,IC50 [nM]
1,"O=C([C@@H]1CCCc2nn(Cc3ccc(C(F)(F)F)cn3)c(=O)n21)N1CCCC1 [Example 531, (5S)-5-(Pyrrolidin-1-ylcarbonyl)-2-{[5-(trifluoromethyl)pyridin-2-yl]methyl}-5,6,7,8-tetrahydro[1,2,4]triazolo[4,3-a]pyridin-3(2H)-one]",3
2,"COc1ccc(Cn2nc3n(c2=O)[C@H](C(=O)N2CC(F)(F)C2)CCC3)nc1 [Example 532, (5S)-5-[(3,3-Difluoroazetidin-1-yl)carbonyl]-2-[(5-methoxypyridin-2-yl)methyl]-5,6,7,8-tetrahydro[1,2,4]triazolo[4,3-a]pyridin-3(2H)-one]",34
3,"O=C([C@@H]1CCCc2nn(Cc3nccc(C(F)(F)F)c3Cl)c(=O)n21)N1CCCC1 [Example 533, (5S)-2-{[3-Chloro-4-(trifluoromethyl)pyridin-2-yl]methyl}-5-(pyrrolidin-1-ylcarbonyl)-5,6,7,8-tetrahydro[1,2,4]triazolo[4,3-a]pyridin-3(2H)-one]",0.44
4,"Cn1nc(Cn2nc3n(c2=O)[C@H](C(=O)N2CC(F)C2)CCC3)c2cccnc21 [Example 534, (5S)-5-[(3-Fluoroazetidin-1-yl)carbonyl]-2-[(1-methyl-1H-pyrazolo[3,4-b]pyridin-3-yl)methyl]-5,6,7,8-tetrahydro[1,2,4]triazolo[4,3-a]pyridin-3(2H)-one]",1.23
5,"O=C([C@@H]1CCCc2nn(Cc3cncc(C(F)(F)F)c3)c(=O)n21)N1CCCC1 [Example 535, (5S)-5-(Pyrrolidin-1-ylcarbonyl)-2-{[5-(trifluoromethyl)pyridin-3-yl]methyl}-5,6,7,8-tetrahydro[1,2,4]triazolo[4,3-a]pyridin-3(2H)-one]",5.1
6,"O=C([C@@H]1CCCc2nn(Cc3ccc(F)nc3)c(=O)n21)N1CCC(F)(F)C1 [Example 536, (5S)-5-[(3,3-Difluoropyrrolidin-1-yl)carbonyl]-2-[(6-fluoropyridin-3-yl)methyl]-5,6,7,8-tetrahydro[1,2,4]triazolo[4,3-a]pyridin-3(2H)-one]",9.6
7,"O=C([C@@H]1CCCc2nn(Cc3ccc(F)nc3)c(=O)n21)N1CC(F)(F)C1 [Example 537, (5S)-5-[(3,3-Difluoroazetidin-1-yl)carbonyl]-2-[(6-fluoropyridin-3-yl)methyl]-5,6,7,8-tetrahydro[1,2,4]triazolo[4,3-a]pyridin-3(2H)-one]",8.8
8,"COc1ccc(Cn2nc3n(c2=O)[C@H](C(=O)N2CCCC2)CCC3)cn1 [Example 538, (5S)-2-[(6-Methoxypyridin-3-yl)methyl]-5-(pyrrolidin-1-ylcarbonyl)-5,6,7,8-tetrahydro[1,2,4]triazolo[4,3-a]pyridin-3(2H)-one]",0.82
9,"O=C([C@@H]1CCCc2nn(Cc3cc(C(F)(F)F)nc4ccccc34)c(=O)n21)N1CC[C@H](F)C1 [Example 539, (5S)-5-{[(3S)-3-Fluoropyrrolidin-1-yl]carbonyl}-2-{[2-(trifluoromethyl)quinolin-4-yl]methyl}-5,6,7,8-tetrahydro[1,2,4]triazolo[4,3-a]pyridin-3(2H)-one]",0.85
10,"O=C([C@@H]1CCCc2nn(Cc3nc(C(F)(F)F)no3)c(=O)n21)N1CC(F)C1 [Example 540, (5S)-5-[(3-Fluoroazetidin-1-yl)carbonyl]-2-{[3-(trifluoromethyl)-1,2,4-oxadiazol-5-yl]methyl}-5,6,7,8-tetrahydro[1,2,4]triazolo[4,3-a]pyridin-3(2H)-one]",27
11,"O=C([C@@H]1CCCc2nn(Cc3nnc(C(F)(F)F)o3)c(=O)n21)N1CCC(F)(F)C1 [Example 541, (5S)-5-[(3,3-Difluoropyrrolidin-1-yl)carbonyl]-2-{[5-(trifluoromethyl)-1,3,4-oxadiazol-2-yl]methyl}-5,6,7,8-tetrahydro[1,2,4]triazolo[4,3-a]pyridin-3(2H)-one]",63
12,"O=C([C@@H]1CCCc2nn(Cc3nnc(C(F)(F)F)o3)c(=O)n21)N1CC(F)C1 [Example 542, (5S)-5-[(3-Fluoroazetidin-1-yl)carbonyl]-2-{[5-(trifluoromethyl)-1,3,4-oxadiazol-2-yl]methyl}-5,6,7,8-tetrahydro[1,2,4]triazolo[4,3-a]pyridin-3(2H)-one]",94
13,"O=C([C@@H]1CCCc2nn(Cc3nnc(C(F)(F)F)o3)c(=O)n21)N1C[C@@H](F)[C@@H](F)C1 [Example 543, (5S)-5-{[(3R,4S)-3,4-Difluoropyrrolidin-1-yl]carbonyl}-2-{[5-(trifluoromethyl)-1,3,4-oxadiazol-2-yl]methyl}-5,6,7,8-tetrahydro[1,2,4]triazolo[4,3-a]pyridin-3(2H)-one]",33.5
14,"O=C([C@@H]1CCCc2nn(Cc3nnc(C(F)(F)F)o3)c(=O)n21)N1CC[C@H](F)C1 [Example 544, (5S)-5-{[(3S)-3-Fluoropyrrolidin-1-yl]carbonyl}-2-{[5-(trifluoromethyl)-1,3,4-oxadiazol-2-yl]methyl}-5,6,7,8-tetrahydro[1,2,4]triazolo[4,3-a]pyridin-3(2H)-one]",4.4
15,"O=C([C@@H]1CCCc2nn(Cc3cnc(C(F)(F)F)c(Cl)c3)c(=O)n21)N1CCCC1 [Example 545, (5S)-2-{[5-Chloro-6-(trifluoromethyl)pyridin-3-yl]methyl}-5-(pyrrolidin-1-ylcarbonyl)-5,6,7,8-tetrahydro[1,2,4]triazolo[4,3-a]pyridin-3(2H)-one]",0.67
16,"O=C([C@@H]1CCCc2nn(Cc3ccc(F)cc3)c(=O)n21)N1CC(F)C1 [Example 546, (5S)-5-[(3-Fluoroazetidin-1-yl)carbonyl]-2-(4-fluorobenzyl)-5,6,7,8-tetrahydro[1,2,4]triazolo[4,3-a]pyridin-3(2H)-one]",0.57
17,O=C([C@@H]1CCCc2nn(Cc3ncc(Cl)cc3F)c(=O)n21)N1CC(F)C(F)C1 (stereo partly shown) [Example 549],36
18,"O=C([C@@H]1CCC(F)(F)c2nn(Cc3ccc(Cl)cn3)c(=O)n21)N1CC[C@H](F)C1 [Example 555, (5S)-2-[(5-Chloropyridin-2-yl)methyl]-8,8-difluoro-5-{[(3S)-3-fluoropyrrolidin-1-yl]carbonyl}-5,6,7,8-tetrahydro[1,2,4]triazolo[4,3-a]pyridin-3(2H)-one]",0.54
19,"O=C([C@@H]1CCC(F)(F)c2nn(Cc3ncc(Cl)cc3F)c(=O)n21)N1CC[C@H](F)C1 [Example 556, (5S)-2-[(5-chloro-3-fluoropyridin-2-yl)methyl]-8,8-difluoro-5-{[(3S)-3-fluoropyrrolidin-1-yl]carbonyl}-5,6,7,8-tetrahydro[1,2,4]triazolo[4,3-a]pyridin-3(2H)-one]",0.63
20,"O=C([C@@H]1CCC(F)(F)c2nn(Cc3ccc(Cl)nc3)c(=O)n21)N1CCC(F)(F)C1 [Example 557, (5S)-2-[(6-Chloropyridin-3-yl)methyl]-5-[(3,3-difluoropyrrolidin-1-yl)carbonyl]-8,8-difluoro-5,6,7,8-tetrahydro[1,2,4]triazolo[4,3-a]pyridin-3(2H)-one]",3.2
21,"O=C([C@@H]1CC=Cc2nn(Cc3ccc(C(F)(F)F)nc3)c(=O)n21)N1C[C@@H](F)[C@@H](F)C1 [Example 558, (5S)-5-{[(3R,4S)-3,4-Difluoropyrrolidin-1-yl]carbonyl}-2-{[6-(trifluoromethyl)pyridin-3-yl]methyl}-5,6-dihydro[1,2,4]triazolo[4,3-a]pyridin-3(2H)-one]",1.9
22,"O=C([C@@H]1CCCc2nn(Cc3cnc(C(F)(F)F)nc3)c(=O)n21)N1CC[C@H](F)C1 [Example 559, (5S)-5-{[(3S)-3-Fluoropyrrolidin-1-yl]carbonyl}-2-{[2-(trifluoromethyl)pyrimidin-5-yl]methyl}-5,6,7,8-tetrahydro[1,2,4]triazolo[4,3-a]pyridin-3(2H)-one]",35
23,"O=C([C@@H]1CCCc2nn(Cc3ncc(F)cc3Cl)c(=O)n21)N1CC[C@H](F)C1 [Example 560, (5S)-2-[(3-Chloro-5-fluoropyridin-2-yl)methyl]-5-{[(3S)-3-fluoropyrrolidin-1-yl]carbonyl}-5,6,7,8-tetrahydro[1,2,4]triazolo[4,3-a]pyridin-3(2H)-one]",0.43
24,"O=C([C@@H]1CCCc2nn(Cc3ncc(Cl)cc3F)c(=O)n21)N1CC[C@H](F)C1 [Example 568, (5S)-2-[(5-Chloro-3-fluoropyridin-2-yl)methyl]-5-{[(3S)-3-fluoropyrrolidin-1-yl]carbonyl}-5,6,7,8-tetrahydro[1,2,4]triazolo[4,3-a]pyridin-3(2H)-one]",0.62
25,"O=C([C@@H]1CCCc2nn(Cc3cncc(C(F)(F)F)c3)c(=O)n21)N1C[C@@H](F)[C@@H](F)C1 [Example 578, (5S)-5-{[(3R,4S)-3,4-Difluoropyrrolidin-1-yl]carbonyl}-2-{[5-(trifluoromethyl)pyridin-3-yl]methyl}-5,6,7,8-tetrahydro[1,2,4]triazolo[4,3-a]pyridin-3(2H)-one]",2.3
